Laboratory results: the kinase profiling compilation of Christmann-Franck et al. (2016)

Key:
Test in all cases: radiometric filter-binding kinase assay, Kinase HotSpot
Conditions in all cases: compound 0.5 µM; ATP 10 µM
PHKG2 (human) = PHKG2 (human) (UniProt P15735)
TXK (human) = TXK (human) (UniProt P42681)
RPS6KB2 (human) = RPS6KB2 (human) (UniProt Q9UBS0)
NLK (human) = NLK (human) (UniProt Q9UBE8)
CAMK2A (human) = CAMK2A (human) (UniProt Q9UQM7)
CHEK2 (human) = CHEK2 (human) (UniProt O96017)
AURKB (human) = AURKB (human) (UniProt Q96GD4)
EGFR (human) = EGFR (human) (UniProt P00533)
GSG2 (human) = GSG2 (human) (UniProt Q8TF76)
AXL (human) = AXL (human) (UniProt P30530)
VRK1 (human) = VRK1 (human) (UniProt Q99986)
MATK (human) = MATK (human) (UniProt P42679)
MELK (human) = MELK (human) (UniProt Q14680)
PAK6 (human) = PAK6 (human) (UniProt Q9NQU5)
CDK6 CCND3 (human) = CDK6 CCND3 (human) (UniProt P30281+Q00534)
PKN2 (human) = PKN2 (human) (UniProt Q16513)
PIM1 (human) = PIM1 (human) (UniProt P11309)
SRPK2 (human) = SRPK2 (human) (UniProt P78362)
ULK1 (human) = ULK1 (human) (UniProt O75385)
CDK6 CCND1 (human) = CDK6 CCND1 (human) (UniProt Q00534+P24385)
PAK4 (human) = PAK4 (human) (UniProt O96013)
MYLK (human) = MYLK (human) (UniProt Q15746)
EPHA4 (human) = EPHA4 (human) (UniProt P54764)
KIT (human) = KIT (human) (UniProt P10721)
CDC42BPA (human) = CDC42BPA (human) (UniProt Q5VT25)
BTK (human) = BTK (human) (UniProt Q06187)
TAOK3 (human) = TAOK3 (human) (UniProt Q9H2K8)
STK17A (human) = STK17A (human) (UniProt Q9UEE5)
STK3 (human) = STK3 (human) (UniProt Q13188)
ALK (human) = ALK (human) (UniProt Q9UM73)
NUAK2 (human) = NUAK2 (human) (UniProt Q9H093)
GRK7 (human) = GRK7 (human) (UniProt Q8WTQ7)
DYRK2 (human) = DYRK2 (human) (UniProt Q92630)
ZAP70 (human) = ZAP70 (human) (UniProt P43403)
HIPK4 (human) = HIPK4 (human) (UniProt Q8NE63)
CLK2 (human) = CLK2 (human) (UniProt P49760)
RPS6KA3 KD1 KD2 (human) = RPS6KA3 KD1 KD2 (human) (UniProt P51812)
MKNK2 (human) = MKNK2 (human) (UniProt Q9HBH9)
MAPK14 (human) = MAPK14 (human) (UniProt Q16539)
DMPK (human) = DMPK (human) (UniProt Q09013)

Chain of AURKB (human) (Q96GD4 whole entry, looked up): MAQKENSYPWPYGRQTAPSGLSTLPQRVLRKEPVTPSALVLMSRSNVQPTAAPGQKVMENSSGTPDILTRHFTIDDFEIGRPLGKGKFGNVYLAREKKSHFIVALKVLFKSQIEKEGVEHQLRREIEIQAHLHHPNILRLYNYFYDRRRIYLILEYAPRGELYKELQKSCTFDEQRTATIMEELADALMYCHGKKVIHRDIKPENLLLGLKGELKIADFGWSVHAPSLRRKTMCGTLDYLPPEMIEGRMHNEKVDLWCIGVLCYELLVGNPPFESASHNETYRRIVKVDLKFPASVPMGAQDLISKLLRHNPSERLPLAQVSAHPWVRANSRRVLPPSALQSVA
Chain of RPS6KA3 KD1 KD2 (human) (P51812 whole entry, looked up): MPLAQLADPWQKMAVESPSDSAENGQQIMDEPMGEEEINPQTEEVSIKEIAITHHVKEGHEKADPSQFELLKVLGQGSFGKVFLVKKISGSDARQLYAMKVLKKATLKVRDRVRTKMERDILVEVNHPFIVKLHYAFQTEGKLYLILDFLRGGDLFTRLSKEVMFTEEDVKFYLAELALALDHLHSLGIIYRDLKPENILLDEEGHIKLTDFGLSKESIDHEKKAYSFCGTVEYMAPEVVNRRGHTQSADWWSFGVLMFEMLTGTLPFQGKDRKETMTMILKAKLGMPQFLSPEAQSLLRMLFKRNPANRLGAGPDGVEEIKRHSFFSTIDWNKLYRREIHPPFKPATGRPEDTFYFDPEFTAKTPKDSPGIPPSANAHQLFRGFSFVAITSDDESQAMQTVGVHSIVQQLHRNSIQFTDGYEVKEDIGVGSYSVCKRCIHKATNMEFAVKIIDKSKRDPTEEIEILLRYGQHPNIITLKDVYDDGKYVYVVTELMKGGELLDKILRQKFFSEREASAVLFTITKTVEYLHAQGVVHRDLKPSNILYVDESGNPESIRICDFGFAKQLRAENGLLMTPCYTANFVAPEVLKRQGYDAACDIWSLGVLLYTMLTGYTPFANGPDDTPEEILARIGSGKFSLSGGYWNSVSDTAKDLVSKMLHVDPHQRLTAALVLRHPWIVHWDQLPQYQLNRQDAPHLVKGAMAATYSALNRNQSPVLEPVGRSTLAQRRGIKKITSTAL
Chain of SRPK2 (human) (P78362 whole entry, looked up): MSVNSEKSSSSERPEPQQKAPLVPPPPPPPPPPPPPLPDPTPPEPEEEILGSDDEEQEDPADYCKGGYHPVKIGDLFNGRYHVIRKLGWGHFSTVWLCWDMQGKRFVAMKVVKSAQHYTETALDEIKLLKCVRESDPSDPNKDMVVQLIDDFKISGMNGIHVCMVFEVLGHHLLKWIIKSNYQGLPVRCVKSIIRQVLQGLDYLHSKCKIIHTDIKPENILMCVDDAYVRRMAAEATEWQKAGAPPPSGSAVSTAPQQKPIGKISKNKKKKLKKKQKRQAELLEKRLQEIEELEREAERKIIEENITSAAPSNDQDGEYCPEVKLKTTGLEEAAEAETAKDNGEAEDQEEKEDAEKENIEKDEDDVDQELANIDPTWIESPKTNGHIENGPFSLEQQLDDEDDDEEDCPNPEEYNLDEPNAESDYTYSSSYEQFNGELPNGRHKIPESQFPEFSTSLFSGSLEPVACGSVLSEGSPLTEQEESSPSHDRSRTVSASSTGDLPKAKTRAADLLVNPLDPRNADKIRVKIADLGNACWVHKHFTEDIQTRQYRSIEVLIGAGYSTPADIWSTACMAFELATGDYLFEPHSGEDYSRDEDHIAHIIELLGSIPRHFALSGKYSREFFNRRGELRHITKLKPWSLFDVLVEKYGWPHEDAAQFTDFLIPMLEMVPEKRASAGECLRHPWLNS
Chain of EGFR (human) (P00533 whole entry, looked up): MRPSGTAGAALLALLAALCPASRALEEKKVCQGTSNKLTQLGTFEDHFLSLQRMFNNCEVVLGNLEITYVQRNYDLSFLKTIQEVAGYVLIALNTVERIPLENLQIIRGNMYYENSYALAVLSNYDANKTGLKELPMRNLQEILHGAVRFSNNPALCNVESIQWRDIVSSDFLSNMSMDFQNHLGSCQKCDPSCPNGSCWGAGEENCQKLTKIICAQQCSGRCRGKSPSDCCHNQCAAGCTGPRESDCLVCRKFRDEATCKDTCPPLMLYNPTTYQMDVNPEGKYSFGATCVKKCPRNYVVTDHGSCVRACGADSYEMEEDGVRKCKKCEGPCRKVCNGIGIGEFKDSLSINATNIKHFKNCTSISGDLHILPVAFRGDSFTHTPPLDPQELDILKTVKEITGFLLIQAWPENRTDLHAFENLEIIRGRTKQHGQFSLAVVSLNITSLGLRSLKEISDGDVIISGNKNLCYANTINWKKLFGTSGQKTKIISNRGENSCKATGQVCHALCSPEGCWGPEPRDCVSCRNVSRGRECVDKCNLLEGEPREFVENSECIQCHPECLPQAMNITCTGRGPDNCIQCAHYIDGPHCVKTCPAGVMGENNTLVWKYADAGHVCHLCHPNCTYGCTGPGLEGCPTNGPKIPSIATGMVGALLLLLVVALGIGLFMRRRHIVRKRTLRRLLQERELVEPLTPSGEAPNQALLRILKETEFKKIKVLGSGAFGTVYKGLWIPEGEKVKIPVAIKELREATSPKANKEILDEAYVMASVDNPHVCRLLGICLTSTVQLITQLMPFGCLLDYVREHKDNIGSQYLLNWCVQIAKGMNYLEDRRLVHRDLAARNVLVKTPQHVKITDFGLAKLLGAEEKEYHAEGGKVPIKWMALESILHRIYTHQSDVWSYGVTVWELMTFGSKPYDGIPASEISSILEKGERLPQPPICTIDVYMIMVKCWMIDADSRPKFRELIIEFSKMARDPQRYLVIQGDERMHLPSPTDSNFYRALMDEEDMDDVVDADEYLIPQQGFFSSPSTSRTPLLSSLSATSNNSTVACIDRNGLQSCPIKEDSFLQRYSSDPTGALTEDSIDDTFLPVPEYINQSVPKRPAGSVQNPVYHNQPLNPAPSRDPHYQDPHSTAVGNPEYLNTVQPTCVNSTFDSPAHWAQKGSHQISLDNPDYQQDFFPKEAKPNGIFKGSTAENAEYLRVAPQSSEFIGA
Chain of HIPK4 (human) (Q8NE63 whole entry, looked up): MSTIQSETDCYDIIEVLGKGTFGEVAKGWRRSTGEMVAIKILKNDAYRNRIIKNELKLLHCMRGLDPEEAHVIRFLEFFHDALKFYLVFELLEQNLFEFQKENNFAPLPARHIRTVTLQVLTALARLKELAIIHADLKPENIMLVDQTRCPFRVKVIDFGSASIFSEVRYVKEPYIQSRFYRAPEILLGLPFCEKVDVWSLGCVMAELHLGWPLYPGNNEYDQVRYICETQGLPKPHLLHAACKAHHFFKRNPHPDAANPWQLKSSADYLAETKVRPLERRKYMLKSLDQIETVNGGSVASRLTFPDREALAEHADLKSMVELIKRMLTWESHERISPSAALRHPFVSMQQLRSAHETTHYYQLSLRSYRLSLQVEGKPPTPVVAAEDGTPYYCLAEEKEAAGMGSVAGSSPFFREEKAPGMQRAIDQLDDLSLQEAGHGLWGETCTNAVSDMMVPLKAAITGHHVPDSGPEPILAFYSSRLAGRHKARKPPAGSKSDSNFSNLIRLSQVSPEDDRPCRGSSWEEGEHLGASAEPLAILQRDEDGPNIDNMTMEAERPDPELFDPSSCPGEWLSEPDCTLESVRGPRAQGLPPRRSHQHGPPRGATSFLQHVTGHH
Chain of MATK (human) (P42679 whole entry, looked up): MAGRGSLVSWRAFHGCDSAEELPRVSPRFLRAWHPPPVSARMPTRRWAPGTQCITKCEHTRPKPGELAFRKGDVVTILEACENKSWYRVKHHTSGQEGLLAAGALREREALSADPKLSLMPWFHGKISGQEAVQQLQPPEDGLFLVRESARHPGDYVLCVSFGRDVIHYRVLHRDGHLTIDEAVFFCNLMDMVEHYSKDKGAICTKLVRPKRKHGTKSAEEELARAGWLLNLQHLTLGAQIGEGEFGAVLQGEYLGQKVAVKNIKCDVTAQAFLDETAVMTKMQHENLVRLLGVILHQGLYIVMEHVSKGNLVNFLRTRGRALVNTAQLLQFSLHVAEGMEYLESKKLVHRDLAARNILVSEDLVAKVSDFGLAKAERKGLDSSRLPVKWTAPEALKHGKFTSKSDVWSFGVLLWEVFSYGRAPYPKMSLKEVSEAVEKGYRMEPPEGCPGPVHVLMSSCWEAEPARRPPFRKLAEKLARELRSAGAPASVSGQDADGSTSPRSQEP
Chain of VRK1 (human) (Q99986 whole entry, looked up): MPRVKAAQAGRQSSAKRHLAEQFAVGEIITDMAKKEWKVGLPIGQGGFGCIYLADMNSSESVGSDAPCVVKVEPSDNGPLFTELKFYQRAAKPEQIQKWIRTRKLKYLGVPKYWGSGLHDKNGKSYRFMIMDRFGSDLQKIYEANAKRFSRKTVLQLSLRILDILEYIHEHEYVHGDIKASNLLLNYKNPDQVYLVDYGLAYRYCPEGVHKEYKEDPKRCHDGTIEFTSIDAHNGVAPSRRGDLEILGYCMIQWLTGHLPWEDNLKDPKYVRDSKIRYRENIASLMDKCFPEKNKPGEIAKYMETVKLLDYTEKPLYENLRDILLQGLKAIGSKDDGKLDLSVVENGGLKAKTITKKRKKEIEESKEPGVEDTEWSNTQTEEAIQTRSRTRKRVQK
Chain of MAPK14 (human) (Q16539 whole entry, looked up): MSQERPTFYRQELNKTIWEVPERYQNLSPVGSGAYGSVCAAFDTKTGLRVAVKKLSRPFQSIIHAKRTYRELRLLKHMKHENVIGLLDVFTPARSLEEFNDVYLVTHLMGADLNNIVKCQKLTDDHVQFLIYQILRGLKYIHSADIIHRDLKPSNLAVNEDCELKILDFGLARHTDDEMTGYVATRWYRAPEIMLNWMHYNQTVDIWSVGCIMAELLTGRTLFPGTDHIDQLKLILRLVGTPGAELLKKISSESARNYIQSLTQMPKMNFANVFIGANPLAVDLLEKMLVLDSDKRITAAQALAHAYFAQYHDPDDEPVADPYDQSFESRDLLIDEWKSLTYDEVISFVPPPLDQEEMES

Row | SMILES | residual activity (PHKG2 (human)) | residual activity (TXK (human)) | residual activity (RPS6KB2 (human)) | residual activity (NLK (human)) | residual activity (CAMK2A (human)) | residual activity (CHEK2 (human)) | residual activity (GSG2 (human)) | residual activity (VRK1 (human)) | residual activity (MATK (human)) | residual activity (MELK (human)) | residual activity (PAK6 (human)) | residual activity (CDK6 CCND3 (human)) | residual activity (PKN2 (human)) | residual activity (PIM1 (human)) | residual activity (ULK1 (human)) | residual activity (CDK6 CCND1 (human)) | residual activity (PAK4 (human)) | residual activity (MYLK (human)) | residual activity (EPHA4 (human)) | residual activity (KIT (human)) | also measured
1 | CCN(CC)C(=O)c1ccc(Nc2nc(OCC3CCCCC3)c3nc[nH]c3n2)cc1 | 96.6% | 46% | 102% | 94.5% | 105% | 71.3% | 94.1% | 93.1% | 95.6% | 76.3% | 95.5% | 47.2% | 91.8% | 95.6% | 77.7% | 52.9% | 51.5% | 91.6% | 86.7% | 40.7% | residual activity (AURKB (human)): 30.1%; residual activity (EGFR (human)): 88.5%; residual activity (AXL (human)): 80.8%; residual activity (SRPK2 (human)): 87.8%; residual activity (CDC42BPA (human)): 90.7%; residual activity (BTK (human)): 37.1%; residual activity (TAOK3 (human)): 74.2%; residual activity (STK17A (human)): 59.8%; residual activity (STK3 (human)): 62.1%; residual activity (ALK (human)): 74.9%; residual activity (NUAK2 (human)): 23.1%; residual activity (GRK7 (human)): 103%; residual activity (DYRK2 (human)): 98.2%; residual activity (ZAP70 (human)): 94%; residual activity (HIPK4 (human)): 96.5%; residual activity (CLK2 (human)): 40.6%; residual activity (RPS6KA3 KD1 KD2 (human)): 17.6%; residual activity (MKNK2 (human)): 89.3%; residual activity (MAPK14 (human)): 94.7%; residual activity (DMPK (human)): 105%
2 | Oc1cccc(-c2nc(N3CCOCC3)c3oc4ncccc4c3n2)c1 | 99.1% | 94.8% | 95.8% | 97.4% | 93.7% | 90.4% | 90.3% | 98.4% | 86.7% | 75.5% | 105% | 89.7% | 87.6% | 91.2% | 113% | 95.6% | 90.7% | 77.1% | 96.4% | 88.9% | residual activity (AURKB (human)): 99.4%; residual activity (EGFR (human)): 83.8%; residual activity (AXL (human)): 105%; residual activity (SRPK2 (human)): 97.3%; residual activity (CDC42BPA (human)): 94.5%; residual activity (BTK (human)): 95.2%; residual activity (TAOK3 (human)): 86.8%; residual activity (STK17A (human)): 93.8%; residual activity (STK3 (human)): 105%; residual activity (ALK (human)): 90.5%; residual activity (NUAK2 (human)): 75.3%; residual activity (GRK7 (human)): 100%; residual activity (DYRK2 (human)): 97.6%; residual activity (ZAP70 (human)): 91.4%; residual activity (HIPK4 (human)): 107%; residual activity (CLK2 (human)): 88%; residual activity (RPS6KA3 KD1 KD2 (human)): 101%; residual activity (MKNK2 (human)): 92.6%; residual activity (DMPK (human)): 99.5%
3 | Cc1ccc(S(=O)(=O)/C=C/C#N)cc1 | 109% | 103% | 109% | 99.2% | 103% | 107% | 101% | 105% | 101% | 92% | 107% | 104% | 81.5% | 101% | 102% | 91.4% | 91.9% | 93.9% | 86.1% | 102% | residual activity (AURKB (human)): 92.3%; residual activity (EGFR (human)): 97.5%; residual activity (SRPK2 (human)): 108%; residual activity (CDC42BPA (human)): 96.4%; residual activity (BTK (human)): 94.4%; residual activity (TAOK3 (human)): 101%; residual activity (STK17A (human)): 97.8%; residual activity (STK3 (human)): 93.6%; residual activity (ALK (human)): 103%; residual activity (NUAK2 (human)): 88.4%; residual activity (GRK7 (human)): 92.6%; residual activity (DYRK2 (human)): 102%; residual activity (ZAP70 (human)): 97.5%; residual activity (HIPK4 (human)): 108%; residual activity (CLK2 (human)): 103%; residual activity (RPS6KA3 KD1 KD2 (human)): 95.9%; residual activity (MKNK2 (human)): 119%; residual activity (MAPK14 (human)): 97.4%; residual activity (DMPK (human)): 89%
4 | CNC(=O)c1cc(Oc2ccc(NC(=O)Nc3ccc(Cl)c(C(F)(F)F)c3)cc2)ccn1 | 91.3% | 106% | 103% | 99.1% | 95.3% | 102% | 99.3% | 99.3% | 114% | 93.6% | 104% | 104% | 94.2% | 97.1% | 94.3% | 91.8% | 91.8% | 93.7% | 92.5% | 53.3% | residual activity (AXL (human)): 105%; residual activity (SRPK2 (human)): 102%; residual activity (CDC42BPA (human)): 85.2%; residual activity (BTK (human)): 102%; residual activity (TAOK3 (human)): 63.5%; residual activity (STK17A (human)): 96%; residual activity (STK3 (human)): 96.9%; residual activity (ALK (human)): 97.3%; residual activity (NUAK2 (human)): 101%; residual activity (GRK7 (human)): 97.3%; residual activity (DYRK2 (human)): 98.9%; residual activity (ZAP70 (human)): 97.8%; residual activity (HIPK4 (human)): 4.85%; residual activity (CLK2 (human)): 92.8%; residual activity (RPS6KA3 KD1 KD2 (human)): 100%; residual activity (MKNK2 (human)): 70.3%; residual activity (MAPK14 (human)): 40.2%; residual activity (DMPK (human)): 93.2%
5 | COc1ccc2c(c[n+](C)c3c4cc5c(cc4ccc23)OCO5)c1OC | 94.8% | 100% | 99.6% | 102% | 99.5% | 96.5% | 98.8% | 106% | 89.5% | 89.6% | 96.1% | 94.6% | 93.3% | 97% | 109% | 103% | 99.5% | 100% | 103% | 68.8% | residual activity (AURKB (human)): 99.2%; residual activity (EGFR (human)): 99.6%; residual activity (AXL (human)): 98%; residual activity (CDC42BPA (human)): 84.8%; residual activity (BTK (human)): 98.6%; residual activity (TAOK3 (human)): 96.1%; residual activity (STK17A (human)): 104%; residual activity (STK3 (human)): 102%; residual activity (ALK (human)): 105%; residual activity (NUAK2 (human)): 98.9%; residual activity (GRK7 (human)): 101%; residual activity (DYRK2 (human)): 94.5%; residual activity (ZAP70 (human)): 101%; residual activity (HIPK4 (human)): 95.9%; residual activity (CLK2 (human)): 90.6%; residual activity (RPS6KA3 KD1 KD2 (human)): 94.6%; residual activity (MKNK2 (human)): 107%; residual activity (MAPK14 (human)): 94.1%; residual activity (DMPK (human)): 100%
